Target: T1, PfUBA1 (ubiquitin activating enzyme, E1; PF3D7_1225800) (Plasmodium falciparum, UniProt Q8I5F9)
T1 construct: Thr39 to Lys1140, N-terminal His10-tag, insect cells; with ubiquitin (Cy5-labelled, M1C)
Assay: Cy5-ubiquitin~E1 thioesterification gel assay with recombinant PfUBA1
Format: biochemical

T1 sequence (Q8I5F9 entry or part of it): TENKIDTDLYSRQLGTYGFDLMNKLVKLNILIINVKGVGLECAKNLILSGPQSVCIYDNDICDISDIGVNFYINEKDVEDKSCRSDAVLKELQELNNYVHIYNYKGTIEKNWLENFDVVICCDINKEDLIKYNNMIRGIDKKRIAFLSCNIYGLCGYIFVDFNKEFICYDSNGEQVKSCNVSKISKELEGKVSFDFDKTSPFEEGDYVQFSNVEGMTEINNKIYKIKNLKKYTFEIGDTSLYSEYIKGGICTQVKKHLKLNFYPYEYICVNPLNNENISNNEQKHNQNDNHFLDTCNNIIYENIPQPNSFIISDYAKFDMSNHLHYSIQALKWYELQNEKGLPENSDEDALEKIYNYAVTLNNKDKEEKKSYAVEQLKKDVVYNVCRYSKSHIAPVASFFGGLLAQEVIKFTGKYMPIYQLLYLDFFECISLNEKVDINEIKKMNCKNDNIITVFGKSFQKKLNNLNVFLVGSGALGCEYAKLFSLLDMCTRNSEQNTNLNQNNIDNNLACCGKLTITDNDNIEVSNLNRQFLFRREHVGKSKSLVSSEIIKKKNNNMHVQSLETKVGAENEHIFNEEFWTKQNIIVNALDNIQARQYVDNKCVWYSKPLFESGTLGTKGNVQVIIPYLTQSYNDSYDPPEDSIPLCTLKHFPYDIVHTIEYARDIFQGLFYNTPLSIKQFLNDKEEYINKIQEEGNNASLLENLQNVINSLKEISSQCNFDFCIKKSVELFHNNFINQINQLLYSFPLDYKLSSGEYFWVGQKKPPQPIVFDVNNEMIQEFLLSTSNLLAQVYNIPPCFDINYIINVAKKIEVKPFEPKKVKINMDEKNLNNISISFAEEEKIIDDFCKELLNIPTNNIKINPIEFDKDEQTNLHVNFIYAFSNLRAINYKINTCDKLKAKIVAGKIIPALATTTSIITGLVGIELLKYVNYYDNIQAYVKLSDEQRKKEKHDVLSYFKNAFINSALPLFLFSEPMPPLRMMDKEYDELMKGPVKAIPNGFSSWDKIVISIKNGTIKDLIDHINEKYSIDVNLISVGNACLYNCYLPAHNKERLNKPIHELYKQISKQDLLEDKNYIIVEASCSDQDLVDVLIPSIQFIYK

SMILES	IC50
NS(=O)(=O)OC[C@H]1C[C@@H](Nc2ccnc3cc(-c4cccc(SC(F)(F)F)c4)nn23)[C@H](O)[C@@H]1O [MLN7243]	1.4 ± 0.2 µM
NS(=O)(=O)OC[C@@H]1C[C@@H](n2ccc3c(N[C@H]4CCc5ccccc54)ncnc32)C[C@@H]1O [MLN4924]	47 ± 5 µM

Source: PMC7332102, “Ubiquitin activation is essential for schizont maturation in Plasmodium falciparum blood-stage development” (PLoS Pathogens, 2020)
